Key:
[1] = system: Cabbage Looper (Trichoplusia ni); assay: Bioassay on Cabbage Looper (CL), 128-well diet tray assay; assay type: in vivo; details: Cabbage Looper, Table ABC, read-out: CL rating
Summary of the method: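 Mortality after five to seven days at 25° C (14:10 photoperiod), averaged over eight wells per compound. Diet in each well carried 50 μg/cm^2 of dried test molecule and received one to five second-instar larvae.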

[2] = system: Beet Armyworm (Spodoptera exigua); assay: Bioassay on Beet Armyworm (BAW), 128-well diet tray assay; assay type: in vivo; details: Beet Armyworm, Table ABC, read-out: BAW rating
Summary of the method: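 Percent mortality, averaged over eight wells, was scored after five to seven days at 25° C under 14:10 light-dark. Each well's diet carried 50 μg/cm^2 of test molecule applied in acetone-water (90:10) and dried before one to five second-instar larvae were added.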

| SMILES | pest or weed control at 50 µg/cm2 [1] | pest or weed control at 50 µg/cm2 [2] |
| --- | --- | --- |
| C=Cc1c(Cl)cc(C(/C=C(\F)c2ccc(C(=O)NC3(C(=O)N(C)CC(F)(F)F)CC3)c(C(F)(F)F)c2)C(F)(F)F)cc1Cl (centres unmarked) [F111, (Z)-4-(3-(3,5-Dichloro-4-vinylphenyl)-1,4,4,4-tetrafluorobut-1-en-1-yl)-N-(1-(methyl(2,2,2-trifluoroethyl)carbamoyl)cyclopropyl)-2-(trifluoromethyl)benzamide] | 50 to 100% | 50 to 100% |
| C[C@@H](NC(=O)c1ccc(/C(F)=C/C(c2ccc(Cl)c(Cl)c2)C(C)(F)F)cc1C(F)(F)F)C(=O)NCC(F)(F)F (stereo partly drawn) [F112, 4-((Z)-3-(3,4-Dichlorophenyl)-1,4,4-trifluoropent-1-en-1-yl)-N—((R)-1-oxo-1-((2,2,2-trifluoroethyl)amino)propan-2-yl)-2-(trifluoromethyl)benzamide] | 50 to 100% | 50 to 100% |
| CN(CC(F)(F)F)C(=O)C1(NC(=O)c2ccc(/C(F)=C/C(c3cc(Cl)c(Br)c(Cl)c3)C(F)(F)F)cc2C(F)(F)F)CC1 (centres unmarked) [F117, (Z)-4-(3-(4-Bromo-3,5-dichlorophenyl)-1,4,4,4-tetrafluorobut-1-en-1-yl)-N-(1-(methyl(2,2,2-trifluoroethyl)carbamoyl)cyclopropyl)-2-(trifluoromethyl)benzamide] | 50 to 100% | 50 to 100% |
| C[C@@H](NC(=O)c1ccc(/C(F)=C/C(c2ccc(Cl)c(Cl)c2)C(F)(F)F)cc1Br)C(=O)NCC(F)(F)F (stereo partly drawn) [F123, 2-Bromo-4-((Z)-3-(3,4-dichlorophenyl)-1,4,4,4-tetrafluorobut-1-en-1-yl)-N—((R)-1-oxo-1-((2,2,2-trifluoroethyl)amino)propan-2-yl)benzamide] | 50 to 100% | 50 to 100% |
| O=C(CNC(=O)c1ccc(/C(F)=C/C(c2ccc(Cl)c(Cl)c2)C(F)(F)F)cc1Br)NCC(F)(F)F (centres unmarked) [F124, (Z)-2-Bromo-4-(3-(3,4-dichlorophenyl)-1,4,4,4-tetrafluorobut-1-en-1-yl)-N-(2-oxo-2-((2,2,2-trifluoroethyl)amino)ethyl)benzamide] | 50 to 100% | 50 to 100% |
| O=C(NC1(C(=O)NCC(F)(F)F)CC1)c1ccc(/C(F)=C/C(c2ccc(Cl)c(Cl)c2)C(F)(F)F)cc1Br (centres unmarked) [F125, (Z)-2-Bromo-4-(3-(3,4-dichlorophenyl)-1,4,4,4-tetrafluorobut-1-en-1-yl)-N-(1-((2,2,2-trifluoroethyl)carbamoyl)cyclopropyl)benzamide] | 50 to 100% | 50 to 100% |
| CC[C@@H](NC(=O)c1ccc(/C(F)=C/C(c2cc(Cl)c(Cl)c(Cl)c2)C(F)(F)F)cc1C(F)(F)F)C(N)=O (stereo partly drawn) [F126, N—((R)-1-Amino-1-oxobutan-2-yl)-4-((Z)-1,4,4,4-tetrafluoro-3-(3,4,5-trichlorophenyl)but-1-en-1-yl)-2-(trifluoromethyl)benzamide] | 50 to 100% | 50 to 100% |
| NC(=O)CNC(=O)c1ccc(/C(F)=C/C(c2cc(Cl)c(Cl)c(Cl)c2)C(F)(F)F)cc1C(F)(F)F (centres unmarked) [F127, (Z)—N-(2-Amino-2-oxoethyl)-4-(1,4,4,4-tetrafluoro-3-(3,4,5-trichlorophenyl)but-1-en-1-yl)-2-(trifluoromethyl)benzamide] | 50 to 100% | 50 to 100% |
| CC(F)(F)C(/C=C(\F)c1ccc(C(=O)NC2(C(=O)NCC(F)(F)F)CC2)c(C(F)(F)F)c1)c1ccc(Cl)c(Cl)c1 (centres unmarked) [F128, (Z)-4-(3-(3,4-Dichlorophenyl)-1,4,4-trifluoropent-1-en-1-yl)-N-(1-((2,2,2-trifluoroethyl)carbamoyl)cyclopropyl)-2-(trifluoromethyl)benzamide] | 50 to 100% | 50 to 100% |
| CC(F)(F)C(/C=C(\F)c1ccc(C(=O)NCC(=O)NCC(F)(F)F)c(C(F)(F)F)c1)c1ccc(Cl)c(Cl)c1 (centres unmarked) [F129, (Z)-4-(3-(3,4-Dichlorophenyl)-1,4,4-trifluoropent-1-en-1-yl)-N-(2-oxo-2-((2,2,2-trifluoroethyl)amino)ethyl)-2-(trifluoromethyl)benzamide] | 50 to 100% | 50 to 100% |

Reference: patent US10251394B2, “Molecules having pesticidal utility, and intermediates, compositions, and processes, related thereto” (Dow AgroSciences LLC, priority 2016, dated 2019)
